Experimental data as given in US10500194B2, “Covalent small molecule DCN1 inhibitors and therapeutic methods using the same” (THE REGENTS OF THE UNIVERSITY OF MICHIGAN, priority 2017, dated 2019).

Columns and labels:
Nrf2 protein = test: Effect of covalent DCN1 inhibitors on Nrf2 protein level in mouse liver; type: in vivo; settings: single dose 25 mg/kg IP, C57BL/6 male mice, western blotting
Experimental: Liver tissues harvested from C57BL/6 male mice treated with Example 9 (DI-1548) at 25 mg/kg via intraperitoneal (IP) injection were lysed with RIAP buffer. The expression level of Nrf2 protein was examined by western blotting. GAPDH was used a loading control.
The effect of several representative covalent DCN1 inhibitors (Examples 9, 21 and 22) on the level of Nrf2 protein in mouse liver was examined. Mice were administered with a single dose of Example 9 (DI-1548), Example 21 (DI-1859) or Example 22 (DI-1860) at 25 mg/kg, or phosphate-buffered saline (PBS), all via intraperitoneal (IP) injection. Mice were sacrificed at different time points and liver tissues were harvested for western blotting analysis for Nrf2 protein level. The data are shown in FIGS. 5, 6 and 7, respectively.

DCN1 [1] = target: T1, DCN1 (Homo sapiens (Human), UniProt Q96GG9); test: Competitive FP binding assay; settings: read-out: Binding affinity to DCN1 (IC50)
Experimental: The Fluorescence Polarization (FP) competitive binding assays were performed to accurately determine the binding affinities of our DCN1 inhibitors. A novel FAM labeled fluorescent probe compound (46) was designed and synthesized based on one of our potent small molecule DCN1 inhibitors. Equilibrium dissociation constants (Kd) values of 46 to both DCN1 and DCN2 proteins were determined from protein saturation experiments by monitoring the total FP values of mixtures composed with the fluorescent probe at a fixed concentration and proteins with increasing concentrations up to full saturation. Serial dilutions of proteins were mixed with 46 to a final volume of 200 μl in the assay buffer (100 mM phosphate buffer, pH=6.5, with 0.02% Tween-20 and 2% DMSO). Final probe concentration was 5 nM for both assays. Plates were incubated at room temperature for 30 minutes with gentle shaking to assure equilibrium. FP values in millipolarization units (mP) were measured using the Infinite M-1000 plate reader (Tecan U.S., Research Triangle Park, N.C.) in Microfluor 1 96-well, black, round-bottom plates (Thermo Scientific, Waltham, Mass.) at an excitation wavelength of 485 nm and an emission wavelength of 530 nm. Kd values of 46 were calculated by fitting the sigmoidal dose-dependent FP increases as a function of protein concentrations using Graphpad Prism 6.0 software (Graphpad Software, San Diego, Calif.).
(§1) Human DCN1 (residues 58-259) were cloned into a pDEST17 plasmid containing an N-terminal His6 tag. DCN2 (residues 62-259), DCN3 (residues 86-304), DCN4 (residues 102-292) and DCN5 (residues 47-237) were cloned into an N-terminal His6-TEV expression vector. Pure proteins were derived from the same expression and purification protocols. Plasmids were transformed into Rosetta2 cells, the cells were grown in Terrific Broth at 37° C. to an O.D.600>1.0 and induced with 0.4 mM Isopropyl β-D-1-thiogalactopyranoside overnight at 20° C. The pelleted cells were resuspended in lysis buffer containing 25 mM Tris-HCl, pH 7.5, 200 mM NaCl and protease inhibitors, sonicated and centrifuged at 34,000×g for 45 minutes to remove debris. Cleared lysate was incubated with Ni-NTA resin (Qiagen) prewashed with lysis buffer, for 1 hr at 4° C. The matrix was loaded into a column then washed with 25 mM Tris-HCl, pH 7.5, 200 mM NaCl and 10 mM imidazole. Protein was eluted with 25 mM Tris-HCl, pH 7.5, 200 mM NaCl and 300 mM imidazole, concentrated and applied to a Superdex 75 (GE Healthcare) column pre-equilibrated with 25 mM Tris pH 7.5, 200 mM NaCl and 1 mM DTT. For DCN2-5, the N-terminal His6 tag was removed prior to gel filtration. Tag removal was achieved through incubation with TEV protease during overnight dialysis against 25 mM Tris pH 7.5, 200 mM NaCl and 1 mM DTT and a second Ni-NTA column. DCN2-5 proteins were stored at −80° C. in 1 mg/mL fractions containing 5% glycerol. The uncleaved DCN1 protein was stored at −80° C. without glycerol.

DCN1 [2] = target: T1, DCN1; test: Mass spectroscopy of DCN1 protein incubations; type: binding; settings: for ablation of the parent peak in the mass spectrum / major new peak (protein-inhibitor adduct) / mass of new peak (DCN1 plus inhibitor, loss of morpholinyl group): DCN1 380 μM, 1.2 fold excess of inhibitor, 4° C. overnight, Q-TOF; for difference from DCN1 Apo-protein mass: FIG. 2; for formation of a covalent bond with DCN1 protein: FIG. 2, mass-spectroscopic analyses
Experimental: as §1
Recombinant DCN1 protein (380 μM) in 25 mM Tris 7.5, 200 mM NaCl, 1 mM DTT buffer was incubated with a 1.2 fold excess of selected DCN1 inhibitors at 4° C. for overnight. The reaction mixture was diluted with tenfold with water, and the protein was analyzed by Q-TOF mass spectroscopy. DCN1 untreated, or treated with previously described non-covalent inhibitors produced an isotope deconvoluted peak at 26.085.75 amus. Incubation under the described conditions with Examples 4, 7 and 9 led to 95-99% ablation of the parent peak in the mass spectrum, with a major (>90%) new peak appearing at 26588.96 amu (Dalton) for Example 4, 26604.34 amu for Example 7, and 26596.18 amu for Example 9. In each case this corresponds to addition of the inhibitor to the protein, coupled with the loss of the morpholinyl group, from the initial Michael adduct between the protein and the small molecule.

[3] = test system: neddylation of cullin 3 and NRF2 protein in HepG2 cells; test: Western blotting of cullin neddylation and NRF2 in HepG2 cells; type: cell-based; settings: 20 h, compared with non-covalent inhibitor B
Experimental: HepG2 cells were treated as indicated concentrations for 20 h, NRF2, Cullin 1, and Cullin 3 proteins were examined by western blotting. GAPDH was used as a loading control.
Treated cells were lysed by RIPA buffer supplemented with protease inhibitor. The expression level of indicated proteins was examined by western blotting analysis. GAPDH was used as a loading control. Antibodies were purchased: Cullin 1 (sc-11384), Cullin2 (sc-10781), CullinS (sc-13014) and Cullin7 (sc-134565) from Santa Cruz Biotech. (Santa Cruz, Calif.); Cullin 4A (PA5-14542), Cullin 4B (PA5-35239), Cullin9 (PA5-20277), DCN2 (DCUNID2, PA5-31607) and DCN3 (DCUNID3, PA5-44000) from ThermoFisher Scientific (Wayne, Mich.); Cullin 3 (2759), NRF2 (12721), HO-1 (70081), NQO1 (3187), Cyclin E (4129), Bim (2819), Keap1 (8047) and UBC12 (4913) from Cell Signaling Technology (Boston, Mass.); DCN1 (GWB-E3D700) from GenWay Biotech (San Diego, Calif.). Results are representative of three independent experiments.

[4] = test system: APAP-induced liver injury; test: Protection of mice from acetaminophen-induced liver injury (blood ALT activity); type: in vivo
Experimental: To induce acute liver injury, mice were administered a large dose (400 mg/kg) of APAP via intraperitoneal (I.P.) injection and were sacrificed 48 hr later. To examine the protective effect of DI-1859 (pretreatment), animals were I.P. injected with DI-1859 for three consecutive days (one day before APAP injection, three hours before APAP injection and a third dose on the next day after APAP injection). To examine the restorative effect of DI-1859 (post-treatment), mice were treated with DI-1859 three hours after APAP administration followed by two additional doses on the following two days. Two control groups of mice were treated with phosphate-buffered saline (PBS) or DI-1859, respectively. Blood sample collection was performed on each day.
The activity of alanine aminotransferase (ALT) in blood is a commonly used measurement clinically as a part of a diagnostic evaluation of liver injury, to determine liver health. Therefore, the blood ALT activity was measured using an ALT reagent set (Pointe Scientific Inc., Canton, Mich.). […] Furthermore, post-treatment of APAP with DI-1859 at 50 mg/kg reduces the APAP-induced elevated ALT level by approximately 50%.

T1 sequence (Q96GG9 58-259): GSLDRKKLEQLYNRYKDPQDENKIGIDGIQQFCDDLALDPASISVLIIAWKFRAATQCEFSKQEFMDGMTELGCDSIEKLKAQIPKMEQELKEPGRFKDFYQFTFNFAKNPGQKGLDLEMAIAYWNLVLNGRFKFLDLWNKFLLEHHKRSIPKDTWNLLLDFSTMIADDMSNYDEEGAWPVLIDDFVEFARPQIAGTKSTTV

Row | Structure (SMILES) | IC50 (DCN1 [1]) | ablation of the parent peak in the mass spectrum (DCN1 [2]) | major new peak (protein-inhibitor adduct) (DCN1 [2]) | mass of new peak (DCN1 plus inhibitor, loss of morpholinyl group) (DCN1 [2]) | difference from DCN1 Apo-protein mass (DCN1 [2]) | formation of a covalent bond with DCN1 protein (DCN1 [2]) | level of Nrf2 protein in mouse liver tissue (Nrf2 protein) | other results
1 | C=C(CN1CCOCC1)C(=O)NC[C@@H](NC(=O)[C@H](Cc1nc2ccc(Cl)cc2s1)NC(=O)CC)C1CCCCC1 [Example 4, N—((S)-2-((S)-3-(6-chlorobenzo[d]thiazol-2-yl)-2-propionamidopropanamido)-2-cyclohexylethyl)-2-(morpholinomethyl)acrylamide] | 41.6 nM | 95-99% | > 90% | 26588.96 amu | 503.21 Da | formation of a covalent bond | – | –
2 | C=C(CN1CCOCC1)C(=O)NC[C@H](Cc1ccccc1)NC(=O)[C@H](Cc1nc2ccc(C(C)C)cc2s1)NC(=O)CC [Example 7, N—((S)-2-((S)-3-(6-prop-2-ylbenzo[d]thiazol-2-yl)-2-propionamidopropanamido)-3-phenylpropyl)-2-(morpholinomethyl)acrylamide] | 37.4 nM | 95-99% | > 90% | 26604.34 amu | 518.59 Da | formation of a covalent bond | – | –
3 | C=C(CN1CCOCC1)C(=O)NC[C@@H](NC(=O)[C@H](Cc1nc2ccc(C(C)C)cc2s1)NC(=O)CC)C1CCCCC1 [Example 9, N—((S)-2-((S)-3-(6-prop-2-ypbenzo[d]thiazol-2-yl)-2-propionamidopropanamido)-2-cyclohexylethyl)-2-(morpholinomethyl)acrylamide] | 66.5 nM | 95-99% | > 90% | 26596.18 amu | 510.81 Da | formation of a covalent bond | effectively increases | increasing the level of NRF2 protein [3]: much stronger biological activity; inhibition of neddylation of cullin 3 [3]: much stronger biological activity

Second part, led by results:

Row | IC50 (DCN1 [1]) | ablation of the parent peak in the mass spectrum (DCN1 [2]) | major new peak (protein-inhibitor adduct) (DCN1 [2]) | mass of new peak (DCN1 plus inhibitor, loss of morpholinyl group) (DCN1 [2]) | difference from DCN1 Apo-protein mass (DCN1 [2]) | formation of a covalent bond with DCN1 protein (DCN1 [2]) | Structure (SMILES) | level of Nrf2 protein in mouse liver tissue (Nrf2 protein) | other results
4 | < 150 nM | – | – | – | – | – | C=C(CN(CC)CC)C(=O)NC[C@@H](NC(=O)[C@H](Cc1nc2ccc(C(C)C)cc2s1)NC(=O)CC)C1CCCCC1 [Example 22, N—((S)-2-cyclohexyl-2-((S)-3-(6-isopropylbenzo[d]thiazol-2-yl)-2-propionamidopropanamido)ethyl)-2-((diethylamino)methyl)acrylamide] | effectively increases | –
5 | < 150 nM | – | – | – | – | – | C=C(CN(C)C)C(=O)NC[C@@H](NC(=O)[C@H](Cc1nc2ccc(C(C)C)cc2s1)NC(=O)CC)C1CCCCC1 [Example 21, N—((S)-2-cyclohexyl-2-((S)-3-(6-isopropylbenzo[d]thiazol-2-yl)-2-propionamidopropanamido)ethyl)-2-((dimethylamino)methyl)acrylamide] | effectively increases | reduction of APAP-induced elevated ALT level, post-treatment ([4]; APAP 400 mg/kg I.P., post-treatment at 50 mg/kg): approximately 50%; elevation of ALT activity by APAP, pretreatment ([4]; APAP 400 mg/kg I.P., pretreatment at 50 mg/kg): completely prevents; elevated ALT activity induced by APAP, pretreatment ([4]; APAP 400 mg/kg I.P., pretreatment, dose-dependent): effectively reduces; APAP-induced alanine aminotransferase (ALT) increase ([4]; pre- or post-treatment, APAP, FIG. 8): effectively blocks or reduces
6 | < 150 nM | – | – | – | – | – | C=C(CN1CCC(F)(F)CC1)C(=O)NC[C@@H](NC(=O)[C@H](Cc1nc2ccc(C(C)C)cc2s1)NC(=O)CC)C1CCCCC1 [Example 30, N—((S)-2-cyclohexyl-2-((S)-3-(6-isopropylbenzo[d]thiazol-2-yl)-2-propionamidopropanamido)ethyl)-2-((4,4-difluoropiperidin-1-yl)methyl)acrylamide] | – | –
7 | < 150 nM | – | – | – | – | – | C=C(CN1CC(F)(F)C1)C(=O)NC[C@@H](NC(=O)[C@H](Cc1nc2ccc(C(C)C)cc2s1)NC(=O)CC)C1CCCCC1 [Example 26, N—((S)-2-cyclohexyl-2-((S)-3-(6-isopropylbenzo[d]thiazol-2-yl)-2-propionamidopropanamido)ethyl)-2-((3,3-difluoroazetidin-1-yl)methyl)acrylamide] | – | –
